Biological target: T1, human vasopressin V2 receptor subtype (Homo sapiens, UniProt P30518)
T1 construct: host or cells: CHO cells, stably transfected (pZeoSV vector); membranes
Test: Vasopressin binding in CHO cell membranes expressing human vasopressin V2 subtype receptors ([3H]arginine vasopressin)
Settings: for inhibition at 0.1 µM / V2 % inhibition @ 100 nM: 100 nM, values without parentheses; for IC50: values in parentheses
Source text: Vasopressin Binding in Chinese Hamster Ovary Cell Membranes Expressing Human Vasopressin V2 Subtype Receptors
Chinese Hamster Ovary (CHO) cells stably transfected with the human V2 subtype receptors were obtained from M. Thibonnier, Case Western Reserve University School of Medicine, Cleveland, Ohio.
A. Passaging and Amplification of Cells:
CHO cells transfected with the human vasopressin V2 subtype receptors obtained from M. Thibonnier (pZeoSV vector) are allowed to grow to confluency (approx. >90%) in T-150 flasks under sterile conditions, in a cell culture medium of F-12 Nutrient Mixture (HAM) with L-glutamine (Gibco Cat. #11765-054) containing 15 mM HEPES (Gibco Cat. #15630-080), 1% antibiotic/antimycotic (add 5 mL 100×, Gibco Cat. #15240-062 per 500 mL F-12), 250 μg/mL Zeocin (add 1.25 mL of 100 mg/mL Invitrogen R-250-01 per 500 mL F-12) and 10% Fetal Bovine Serum (Qualified, heat inactivated, Gibco Cat. #16140-063). The medium is removed by aspiration and the cells washed with 10 mL of Hank's Balanced Salt solution (Gibco Cat. #14175-095). The salt solution is removed by aspiration and the cells trypsinized with 5 mL of trypsin-EDTA (0.05% trypsin, 0.53 mM EDTA-4Na, Gibco Cat. #25300-070) for 1 min. The trypsin is removed by aspiration and the cells dislodged by tapping. Cell Culture medium (e.g. 30 mL for 1:30 split) is immediately added and mixed well to inactivate trypsin. 1 mL of detached cells is added to new culture flasks containing fresh Cell Culture medium (e.g. into 25 mL per T-150 flask), and mixed gently. The cells are incubated at 37° C. in 5% CO2. The medium is changed at 3 to 4 day interval (or as appropriate). The cells grow to confluency (approx. >75%–95%) within 7–8 days. All steps are done under sterile conditions. B. Membrane Preparation: The cells are washed twice gently with Hank's Balanced Salt solution (e.g. use 10 mL per T-150 flask). The excess solution is removed and the cells bathed for 15–30 min. in an enzyme-free Cell Dissociation Buffer (e.g. use 8 mL Hank's Based, Gibco Cat. # 13150-016 per T-150 flask) until cells are loosened. The contents are transferred to centrifuge tubes (50 mL size) kept in ice bath. All subsequent steps are done at 4° C. The tubes are centrifuged at 300×g for 15 min (1380 rpm on SORVAL, Model RT6000D, using rotor for 50 mL tubes). The supernatant is discarded and the cells suspended in homogeneizing buffer (10 mM Tris-HCl containing 0.25 M sucrose and 1 mM EDTA, pH 7.4) ensuring that the volume of the buffer is about ten times the volume of the cell pellet. The cells are pooled into a centrifuge tube (50 mL) and homogenized with Polytron at setting 6 for 10 sec. The homogenate is transferred into a Potter-Elvjehm homogeneizer and homogenized with 3 strokes. The homogenate is centrifuged at 1500×g for 60 min at 4° C. (3100 rpm using SORVAL, model RT6000D, using rotor for 50 mL tubes). The pellet is discarded. The supernatant is centrifuged at 100,000×g for 60 min. at 4° C. (Beckman L8-80M ultracentrifuge; spin at 37,500 rpm with rotor type 70 Ti for 50 mL tubes; 38,000 rpm with type 80Ti for 15 mL tubes; or 35,800 rpm with rotor type 45Ti). The supernantant is discarded and the pellet suspended in 3 to 4 mL of Tris buffer (50 mM TRIS-HCl, pH 7.4). The protein content is estimated by the Bradford or Lowry method. The volume of the membrane suspension is adjusted with the membrane buffer (50 mM Tris-HCl containing 0.1% BSA and 0.1 mM PMSF) to give 3.0 mg/mL (or as appropriate) of protein. The membranes are aliquoted and stored at −70° C. C. Radioligand Binding Assay:
In wells of a 96-well format microtiter plate, is added 90, 110 or 130 μL (to make up a final volume of 200 μL) of assay buffer containing 50 mM of Tris-HCl (pH 7.4), […], 1 mg % aprotinin, 1 mg % leupeptin, 2 mg % 1,10-phenanthroline, 10 mg % trypsin inhibitor, and 0.1 mM PMSF. The inhibitors are added on the day of the experiment. […]

T1 sequence (P30518 whole entry): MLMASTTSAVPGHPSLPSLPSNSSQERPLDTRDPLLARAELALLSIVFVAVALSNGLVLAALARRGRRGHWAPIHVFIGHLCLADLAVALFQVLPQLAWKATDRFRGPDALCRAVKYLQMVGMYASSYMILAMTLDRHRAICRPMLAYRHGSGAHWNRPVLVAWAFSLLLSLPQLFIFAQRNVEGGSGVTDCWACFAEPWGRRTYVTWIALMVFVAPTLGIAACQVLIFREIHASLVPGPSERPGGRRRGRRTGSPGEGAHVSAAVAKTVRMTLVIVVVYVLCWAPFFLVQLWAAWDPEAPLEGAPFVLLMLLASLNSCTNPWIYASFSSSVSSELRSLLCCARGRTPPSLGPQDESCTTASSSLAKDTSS

Compound | inhibition at 0.1 µM | other results
COc1cc(C2=CCCCC2)c(Cl)cc1C(=O)N1Cc2cccn2Cc2ccccc21 [Example 1, 10-(5-Chloro-4-cyclohex-1-en-1-yl-2-methoxybenzoyl)-10,11-dihydro-5H-pyrrolo[2,1-c][1,4]benzodiazepine] | – | IC50: 176 nM
Cc1cc(C(=O)N2Cc3cccn3Cc3ccccc32)ccc1C1=CCCc2ccccc21 [Example 3, (10,11-Dihydro-5H-pyrrolo[2,1-c][1,4]benzodiazepin-10-yl)-[4-(3,4-dihydro-naphthalen-1-yl)-3-methyl-phenyl]-methanone] | – | IC50: 66 nM
CC1=C(c2ccc(C(=O)N3Cc4cccn4Cc4ccccc43)cc2)CCCC1 [Example 7, (10,11-Dihydro-5H-pyrrolo[2,1-c][1,4]benzodiazepin-10-yl)-[4-(2-methyl-cyclohex-1-en-1-yl)-phenyl]-methanone] | – | IC50: 162 nM
COc1cc(C2=CCCc3ccccc32)c(Cl)cc1C(=O)N1Cc2cccn2Cc2ccccc21 [Example 8, 10-[5-Chloro-4-(3,4-dihydro-naphthalen-1-yl)-2-methoxybenzoyl]-10,11-dihydro-5H-pyrrolo[2,1-c][1,4]benzodiazepine] | 77% | –
COc1cc(C2=C(C)C(=O)CCC2)c(Cl)cc1C(=O)N1Cc2cccn2Cc2ccccc21 [Example 9, 3-[2-Chloro-5-methoxy-4-(5H-pyrrolo[2,1-c][1,4]benzodiazepin-10(11H)-yl-carbonyl)phenyl]-2-methyl-cyclohex-2-en-1-one] | 69% | –
O=C(c1ccc(C2=CCCCC2)cc1Cl)N1Cc2cccn2Cc2ccccc21 [Example 10, (10,11-dihydro-5H-pyrrolo[2,1-c][1,4]benzodiazepin-10-yl)-[2-chloro-4-(cyclohex-1-en1-yl)-phenyl]-methanone] | 65% | –
O=C(c1ccc(C2=CCCc3ccccc32)cc1Cl)N1Cc2cccn2Cc2ccccc21 [Example 11, (10,11-Dihydro-5H-pyrrolo[2,1-c][1,4]benzodiazepin-10-yl)-[2-chloro-4-(3,4-dihydro-naphthalen-1-yl)-phenyl]-methanone] | 90% | –
CC1(C)CCCC=C1c1ccc(C(=O)N2Cc3cccn3Cc3ccccc32)c(Cl)c1 [Example 12, (10,11-Dihydro-5H-pyrrolo[2,1-c][1,4]benzodiazepin-10-yl)-[2-chloro-4-(6,6-dimethyl-cyclohex-1-en-1-yl)-phenyl]-methanone] | 82% | –
O=C(c1ccc(C2=CCCCC2)cc1)N1Cc2cccn2Cc2ccccc21 [Example 15, (10,11-Dihydro-5H-pyrrolo[2,1-c][1,4]benzodiazepin-10-yl)-(4-cyclohex-1-en-1-yl-phenyl)-methanone] | – | IC50: 774 nM
CC1CCCC=C1c1ccc(C(=O)N2Cc3cccn3Cc3ccccc32)cc1 (stereo not shown) [Example 16, (10,11-Dihydro-5H-pyrrolo[2,1-c][1,4]benzodiazepin-10-yl)-[4-(6-methyl-cyclohex-1-en-1-yl)-phenyl]-methanone] | – | IC50: 295 nM
CC1(C)CCCC=C1c1ccc(C(=O)N2Cc3cccn3Cc3ccccc32)cc1 [Example 17, (10,11-Dihydro-5H-pyrrolo[2,1-c][1,4]benzodiazepin-10-yl)-[4-(6,6-dimethyl-cyclohex-1-en-1-yl)-phenyl]-methanone] | 43% | –
O=C(c1ccc(C2=CCCc3ccccc32)cc1)N1Cc2cccn2Cc2ccccc21 [Example 18, (10,11-Dihydro-5H-pyrrolo[2,1-c][1,4]benzodiazepin-10-yl)-[4-(3,4-dihydro-naphthalen-1-yl)-phenyl]-methanone] | 61% | –
CC(C)(C)C1CCCC=C1c1ccc(C(=O)N2Cc3cccn3Cc3ccccc32)cc1 (stereo not shown) [Example 20, (10,11-5H-Dihydro-pyrrolo[2,1-c][1,4]benzodiazepin-10-yl)-[4-(6-tert-butyl-cyclohex-1-en-1-yl)-phenyl]-methanone] | – | V2 % inhibition @ 100 nM: 10%
O=C(c1ccc(C2=CCC3CCC2C3)cc1)N1Cc2cccn2Cc2ccccc21 (stereo not shown) [Example 21] | – | V2 % inhibition @ 100 nM: 5%
CC1(C)C2CC=C(c3ccc(C(=O)N4Cc5cccn5Cc5ccccc54)cc3)C1C2 (stereo not shown) [Example 22, (10,11-Dihydro-5H-pyrrolo[2,1-c][1,4]benzodiazepin-10-yl)-[4-(6,6-dimethyl-bicyclo[3.1.1]hept-2-en-2-yl)-phenyl]-methanone] | 17% | –
CC1(C)C=C(c2ccc(C(=O)N3Cc4cccn4Cc4ccccc43)cc2)CC(C)(C)C1 [Example 23, (10,11-Dihydro-5H-pyrrolo[2,1-c][1,4]benzodiazepin-10-yl)-[4-(3,3,5,5-tetramethyl-cyclohex-1-en-1-yl)-phenyl]-methanone] | 18% | –

Second part, led by results:

inhibition at 0.1 µM | Compound | other results
2% | CC1=C(c2ccc(C(=O)N3Cc4cccn4Cc4ccccc43)cc2C)CCCC1O (racemic) [Example 5, (10,11-Dihydro-5H-pyrrolo[2,1-c][1,4]benzodiazepin-10-yl)-[4-(3-hydroxy-2-methyl-cyclohex-1-en-1-yl)-3-methyl-phenyl]-methanone] | –
40% | CC1=C(c2ccc(C(=O)N3Cc4cccn4Cc4ccccc43)cc2C)CCC[C@H]1O (single isomer, unassigned) [Example 41] | –
45% | CC1=C(c2ccc(C(=O)N3Cc4cccn4Cc4ccccc43)cc2C)CCC[C@@H]1O (single isomer, unassigned) [Example 43] | –
42% | Cc1cc(C(=O)N2Cc3cccn3Cc3ccccc32)ccc1C1=CCCCC1 [Example 2, (10,11-Dihydro-5H-pyrrolo[2,1-c][1,4]benzodiazepin-10-yl)-(4-cyclohex-1-en-1-yl-3-methyl-phenyl)-methanone] | –
74% | CC1=C(c2ccc(C(=O)N3Cc4cccn4Cc4ccccc43)cc2C)CCCC1=O [Example 4, 3-[2-Methyl-4-(5H-pyrrolo[2,1-c][1,4]benzodiazepin-10(11H)-yl-carbonyl)phenyl]-2-methyl-cyclohex-2-en-1-one] | –
49% | CC1=C(c2ccc(C(=O)N3Cc4cccn4Cc4ccccc43)cc2C)CCC[C@H]1O [Example 6, (10,11-Dihydro-5H-pyrrolo[2,1-c][1,4]benzodiazepin-10-yl)-[4-((3R)-3-hydroxy-2-methyl-cyclohex-1-en-1-yl)-3-methyl-phenyl]-methanone] | –
55% | CC1=C(c2ccc(C(=O)N3Cc4cccn4Cc4ccccc43)c(Cl)c2)CCCC1=O [Example 13, (10,11-Dihydro-5H-pyrrolo[2,1-c][1,4]benzodiazepin-10-yl)-[2-chloro-4-(2-methyl-3-oxo-cyclohex-1-en-1-yl)-phenyl]-methanone] | –
38% | CC1=C(c2ccc(C(=O)N3Cc4cccn4Cc4ccccc43)c(Cl)c2)CCCC1O (stereo not shown) [Example 14, (10,11-Dihydro-5H-pyrrolo[2,1-c][1,4]benzodiazepin-10-yl)-[2-chloro-4-(3-hydroxy-2-methyl-cyclohex-1-en-1-yl)-phenyl]-methanone] | –
5% | CC1=C(c2ccc(C(=O)N3Cc4cccn4Cc4ccccc43)cc2)C(C)CCC1 (stereo not shown) [Example 19, (10,11-Dihydro-5H-pyrrolo[2,1-c][1,4]benzodiazepin-10-yl)-[4-(2,6-dimethyl-cyclohex-1-en-1-yl)-phenyl]-methanone] | –

Reference: patent publication US7022699B2, “Cyclohexenyl phenyl diazepines vasopressin and oxytocin receptor modulators” (Wyeth, priority 2001, dated 2006)
